Test results as given in ChEMBL document CHEMBL1122202, “Ultra-short-acting beta-adrenergic receptor blocking agents. 1. (Aryloxy)propanolamines containing esters in the nitrogen substituent” (J Med Chem, 1982).
Active and inactive are the calls of the source. The calls are words filed in the database; no cut-off is given here.

Assays:
[1] = target: T1, Beta-1 adrenergic receptor (Cavia porcellus, UniProt B0FL73); experiment: In vitro ability to block beta-1 adrenergic receptor in guinea pig right atria.; settings: read-out: pA2 (converted)
T1 sequence (B0FL73 whole entry): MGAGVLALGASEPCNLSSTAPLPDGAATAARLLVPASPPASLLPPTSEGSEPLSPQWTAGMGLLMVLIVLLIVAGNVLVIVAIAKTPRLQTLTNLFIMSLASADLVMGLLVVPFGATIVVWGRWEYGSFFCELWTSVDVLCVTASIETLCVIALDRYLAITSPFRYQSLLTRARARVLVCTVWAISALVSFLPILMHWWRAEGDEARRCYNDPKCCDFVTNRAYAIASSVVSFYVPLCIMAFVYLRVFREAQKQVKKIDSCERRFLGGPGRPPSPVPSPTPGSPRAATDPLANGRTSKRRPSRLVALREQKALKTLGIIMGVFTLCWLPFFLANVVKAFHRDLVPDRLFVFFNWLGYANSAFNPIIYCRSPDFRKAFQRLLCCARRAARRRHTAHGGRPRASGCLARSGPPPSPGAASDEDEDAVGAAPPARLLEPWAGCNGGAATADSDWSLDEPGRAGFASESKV

[2] = target: Beta-2 adrenergic receptor (Cavia porcellus, UniProt Q8K4Z4); experiment: In vitro ability to block beta-2 adrenergic receptor in guinea pig trachea.; assay type: tissue-based; settings: read-out: pA2 (converted)
Chain of Beta-2 adrenergic receptor (Q8K4Z4 whole entry): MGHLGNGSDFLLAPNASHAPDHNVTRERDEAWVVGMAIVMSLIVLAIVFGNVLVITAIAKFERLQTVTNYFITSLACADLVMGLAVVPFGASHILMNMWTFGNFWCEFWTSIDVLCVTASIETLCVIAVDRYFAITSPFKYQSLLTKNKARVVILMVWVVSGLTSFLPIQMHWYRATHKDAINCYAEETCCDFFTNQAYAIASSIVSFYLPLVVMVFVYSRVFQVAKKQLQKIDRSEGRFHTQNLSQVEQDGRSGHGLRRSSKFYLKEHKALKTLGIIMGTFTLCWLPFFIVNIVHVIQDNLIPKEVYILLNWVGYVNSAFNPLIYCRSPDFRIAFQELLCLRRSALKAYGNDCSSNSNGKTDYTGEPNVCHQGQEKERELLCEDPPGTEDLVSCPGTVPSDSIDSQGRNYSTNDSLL

[3] = target: T1, Beta-1 adrenergic receptor; experiment: The compound was tested in vitro for its ability to block Beta-1 adrenergic receptor in guinea pig right atria; settings: read-out: pA2 (converted)
[4] = target: Beta-1 adrenergic receptor (Cavia porcellus) (UniProt B0FL73); experiment: The compound was tested in vivo for its ability to block […] adrenergic receptor n guinea pig right atria at a duration of 3h; assay type: organism-based
Chain of Beta-1 adrenergic receptor (Cavia porcellus) (B0FL73 1-467): as the sequence (B0FL73 whole entry) above

[5] = Cardioselectivity expressed as antilog of pA2 (atria)-pA2 (trachea).
[6] = target: Beta-1 adrenergic receptor (Cavia porcellus) (UniProt B0FL73); experiment: In vivo inhibition of Beta-1 adrenergic receptor in guinea pig right atria after 40 min; assay type: functional, organism-based
[7] = target: Beta-1 adrenergic receptor (Cavia porcellus) (UniProt B0FL73); experiment: The compound was tested in vivo for its ability to block Beta-1 adrenergic receptor in guinea pig right atria at a duration of 3h; assay type: functional, organism-based
[8] = target: Beta-2 adrenergic receptor (Cavia porcellus) (UniProt Q8K4Z4); experiment: The compound was tested in vitro for its ability to block Beta-2 adrenergic receptor in guinea pig trachea; Inactive at 10E-5 M; assay type: tissue-based
Chain of Beta-2 adrenergic receptor (Cavia porcellus) (UniProt Q8K4Z4) (Q8K4Z4 whole entry, looked up): as the sequence (Q8K4Z4 whole entry) above

[9] = target: Beta-1 adrenergic receptor (Cavia porcellus) (UniProt B0FL73); experiment: The compound was tested in vitro for its ability to block Beta-1 adrenergic receptor in guinea pig right atria; Inactive at 10E-5 M
[10] = target: Beta-2 adrenergic receptor (Cavia porcellus); experiment: The compound was tested in vitro for its ability to block beta-2-adrenergic receptor in guinea pig trachea; settings: read-out: pA2 (converted)
[11] = target: Beta-1 adrenergic receptor (Cavia porcellus) (UniProt B0FL73)
Description: The compound was tested in vivo for its ability to block Beta-1 adrenergic receptor in guinea pig right atria at a duration of 40 min

[12] = target: T1, Beta-1 adrenergic receptor; experiment: The compound was tested in vitro for its ability to block Beta-1 adrenergic receptor n guinea pig trachea; assay type: tissue-based; settings: read-out: pA2 (converted)

Row | Kb [1] [nM] | Kb [2] [nM] | SMILES | further results
1 | 200 | – | CCOC(=O)CCNCC(O)COc1cccc(C)c1 (stereo not given) | –
2 | – | 1000 | CCOC(=O)CCNCC(O)COc1c(C)cccc1C (stereo not given) | Kb [3]: 794 nM
3 | 126 | 1260 | NCC(O)COc1ccccc1 (stereo not given) | Cardio selectivity [5]: 10
4 | 2 | 1.26 | CC(C)CNCC(O)COc1cccc2ccccc12 (stereo not given) | In vivo duration [6]: 46 min; In vivo duration [7]: > 60 min
5 | 31.6 | – | CCOC(=O)CCNCC(O)COc1ccccc1C (stereo not given) | In vivo duration [6]: 14 min
6 | 100 | – | COc1ccc(CCOC(=O)CCNCC(O)COc2ccccc2)cc1OC (stereo not given) | Kb [10]: 251 nM
7 | 15.8 | – | CCOC(=O)CCCCNCC(O)COc1ccccc1C (stereo not given) | In vivo duration [6]: 20 min
8 | 31.6 | – | COC(=O)CCNCC(O)COc1ccccc1C (stereo not given) | –
9 | 10 | 39.8 | CC(C)CNCC(O)COc1ccccc1 (stereo not given) | Cardio selectivity [5]: 5
10 | 251 | – | CCOC(=O)c1ccc(CNCC(O)COc2ccccc2C)cc1 (stereo not given) | Kb [12]: 1260 nM; Cardio selectivity [5]: 5
11 | 1260 | – | CCOC(=O)C(NCC(O)COc1ccccc1C)C(=O)OCC (stereo not given) | –

Continued, molecule first:

Row | SMILES | Kb [1] [nM] | Kb [2] [nM] | further results
12 | CCOC(=O)CCNCC(O)COc1cccc(OC)c1 (stereo not given) | 398 | – | –
13 | NC(=O)CNCC(O)COc1cccc2ccccc12 (stereo not given) | 631 | 631 | –
14 | NCC(O)COc1cccc2ccccc12 (stereo not given) | 316 | 501 | –
15 | CCOC(=O)CCNCC(O)COc1ccc(OC)cc1 (stereo not given) | 1580 | – | –
16 | CCOC(=O)CNCC(O)COc1ccccc1C (stereo not given) | 1260 | – | –
17 | O=C(CCNCC(O)COc1ccccc1)Oc1ccccc1 (stereo not given) | – | – | In vivo duration [4]: > 60 min; Kb [3]: 398 nM
18 | Cc1ccccc1OCC(O)CNCC(C)C (stereo not given) | 2.51 | 6.31 | –
19 | COC(=O)CCNCC(O)COc1cccc2ccccc12 (stereo not given) | – | 100 | –
20 | CCOC(=O)CCNCC(O)COc1cccc2ccccc12 (stereo not given) | 39.8 | 50.1 | In vivo duration [6]: 17 min
21 | CCOC(=O)CC(C)(C)NCC(O)COc1ccccc1C (stereo not given) | 3.16 | 7.94 | In vivo duration [7]: > 60 min
22 | CCOC(=O)CNCC(O)COc1cccc2ccccc12 (stereo not given) | – | – | In vivo duration [6]: 53 min
23 | O=C(O)CNCC(O)COc1ccccc1 (stereo not given) | – | – | pA2 [8]: inactive; pA2 [9]: inactive
24 | CCOC(=O)CCNCC(O)COc1cccc(Cl)c1 (stereo not given) | – | – | In vivo duration [7]: > 60 min
25 | O=C(CCNCC(O)COc1ccccc1)OCC(F)(F)F (stereo not given) | 2000 | – | –
26 | COC(=O)CNCC(O)COc1ccccc1C (stereo not given) | 3160 | 2000 | –
27 | CCOC(=O)CCNCC(O)COc1ccccc1 (stereo not given) | – | – | In vivo duration [11]: 29 min
28 | CCOC(=O)CCNCC(O)COc1ccc(Cl)cc1 (stereo not given) | – | – | pA2 [9]: inactive
29 | CCOC(=O)c1cccc(NCC(O)COc2ccccc2C)c1 (stereo not given) | 6310 | – | –
30 | CCOC(=O)CCNCC(O)COc1ccccc1Cl (stereo not given) | – | – | In vivo duration [7]: > 60 min
31 | CCOC(=O)c1ccc(NCC(O)COc2ccccc2C)cc1 (stereo not given) | 7940 | – | –
32 | CCOC(=O)CCCNCC(O)COc1ccccc1C (stereo not given) | – | – | In vivo duration [6]: 15 min; In vivo duration [7]: > 60 min
33 | O=C(CCNCC(O)COc1ccccc1)Oc1ccc(F)cc1 (stereo not given) | – | – | Kb [3]: 2000 nM
34 | O=C1CCC(=O)N1CC(O)COc1ccccc1 (stereo not given) | – | – | pA2 [9]: inactive
35 | O=C1CCCN1CC(O)COc1ccccc1 (stereo not given) | – | – | pA2 [8]: inactive; pA2 [9]: inactive
